Experimental data taken from PubChem BioAssay AID222 (DTP/NCI, 2004).
Several values for one entry are separate records, joined by “and”; a condition that tells them apart may be missing. Equal entries are not always repeated. Toxic doses and inconclusive results are not listed.

System: C57BL/6 mice, intracerebral ependymoblastoma, median survival T/C
Experiment: NCI In Vivo Anticancer Drug Screen. Data for tumor model Ependymoblastoma (intracerebral) in C57BL/6 mice
Conditions: endpoint: median survival time, higher = longer survival
Description: The antitumor activity of compounds was measured in mice bearing transplantable tumors. Survival or tumor size were measured and the results are expressed as the measurement made in the treated group (T) divided by the measurement made in the vehicle treated control group (C). The tumor model used in this assay is Ependymoblastoma (intracerebral) in C57BL/6 mice

Structure (SMILES): COC(=O)[C@@]12OC[C@]34[C@H]([C@@H](O)[C@@H]1O)[C@@]1(C)CC(=O)C(O)=C(C)[C@@H]1C[C@H]3OC(=O)[C@H](OC(=O)/C=C(\C)C(C)C)[C@@H]24
- T/C (dose: 0.03 mg/kg/injection, schedule: Q01DX005 (ip), vehicle: Klucel (hydroxypropylcellulose) (HPC)): 92 % of control and 110 % of control
- T/C (dose: 0.06 mg/kg/injection, schedule: Q01DX005 (ip), vehicle: Klucel (hydroxypropylcellulose) (HPC)): 109 % of control and 116 % of control
- T/C (dose: 0.12 mg/kg/injection, schedule: Q01DX005 (ip), vehicle: Klucel (hydroxypropylcellulose) (HPC)): 101 % of control and 107 % of control
- T/C (dose: 0.25 mg/kg/injection, schedule: Q01DX005 (ip), vehicle: Klucel (hydroxypropylcellulose) (HPC)): 104 % of control and 109 % of control
- T/C (dose: 0.5 mg/kg/injection, schedule: Q01DX005 (ip), vehicle: Klucel (hydroxypropylcellulose) (HPC)): 93 % of control and 117 % of control
- T/C (dose: 1.0 mg/kg/injection, schedule: Q01DX005 (ip), vehicle: Klucel (hydroxypropylcellulose) (HPC)): 95 % of control
- T/C (dose: 31.2 micrograms/kg/injection, schedule: Q01DX005 (ip), vehicle: saline + alcohol): 86 % of control
- T/C (dose: 62.5 micrograms/kg/injection, schedule: Q01DX005 (ip), vehicle: saline + alcohol): 99 % of control
- T/C (dose: 125.0 micrograms/kg/injection, schedule: Q01DX005 (ip), vehicle: saline + alcohol): 94 % of control
- T/C (dose: 250.0 micrograms/kg/injection, schedule: Q01DX005 (ip), vehicle: saline + alcohol): 108 % of control
- T/C (dose: 500.0 micrograms/kg/injection, schedule: Q01DX005 (ip), vehicle: saline + alcohol): 87 % of control
- T/C (dose: 1000.0 micrograms/kg/injection, schedule: Q01DX005 (ip), vehicle: saline + alcohol): 99 % of control

Structure (SMILES): O=P1(NCCCl)OCCCN1CCCl (stereo not drawn)
- T/C (dose: 6.25 mg/kg/injection, schedule: Q01DX005 (ip), vehicle: saline): 122 % of control
- T/C (dose: 12.5 mg/kg/injection, schedule: Q01DX005 (ip), vehicle: saline): 110 % of control
- T/C (dose: 25.0 mg/kg/injection, schedule: Q01DX005 (ip), vehicle: saline): 114 % of control
- T/C (dose: 25.0 mg/kg/injection, schedule: Q01DX005 (ip), vehicle: water): 92 % of control and 117 % of control
- T/C (dose: 50.0 mg/kg/injection, schedule: Q01DX001 (ip), vehicle: water): 96 % of control
- T/C (dose: 50.0 mg/kg/injection, schedule: Q01DX005 (ip), vehicle: water): 90 % of control
- T/C (dose: 100.0 mg/kg/injection, schedule: Q01DX001 (ip), vehicle: water): 106 % of control
- T/C (dose: 100.0 mg/kg/injection, schedule: Q01DX005 (ip), vehicle: water): 106 % of control and 123 % of control
- T/C (dose: 200.0 mg/kg/injection, schedule: Q01DX001 (ip), vehicle: water): 119 % of control
- T/C (dose: 200.0 mg/kg/injection, schedule: Q01DX005 (ip), vehicle: water): 116 % of control

Structure (SMILES): Nc1ccc(S(=O)(=O)c2ccc(N)cc2)cc1
- T/C (dose: 12.5 mg/kg/injection, schedule: Q01DX005 (ip), vehicle: saline with Tween-80): 108 % of control
- T/C (dose: 25.0 mg/kg/injection, schedule: Q01DX005 (ip), vehicle: saline with Tween-80): 108 % of control
- T/C (dose: 45.0 mg/kg/injection, schedule: Q01DX005 (ip), vehicle: saline with Tween-80): 98 % of control and 102 % of control
- T/C (dose: 50.0 mg/kg/injection, schedule: Q01DX005 (ip), vehicle: saline with Tween-80): 87 % of control
- T/C (dose: 90.0 mg/kg/injection, schedule: Q01DX005 (ip), vehicle: saline with Tween-80): 96 % of control and 98 % of control
- T/C (dose: 100.0 mg/kg/injection, schedule: Q01DX005 (ip), vehicle: saline with Tween-80): 100 % of control
- T/C (dose: 180.0 mg/kg/injection, schedule: Q01DX005 (ip), vehicle: saline with Tween-80): 101 % of control and 87 % of control
- T/C (dose: 200.0 mg/kg/injection, schedule: Q01DX005 (ip), vehicle: saline with Tween-80): 86 % of control

Structure (SMILES): CC(=O)OC(C1CO1)C(OC(C)=O)C1CO1 (stereo not drawn)
- T/C (dose: 5.0 mg/kg/injection, schedule: Q01DX005 (ip), vehicle: saline): 301 % of control
- T/C (dose: 6.0 mg/kg/injection, schedule: Q01DX005 (ip), vehicle: saline): 365 % of control
- T/C (dose: 7.0 mg/kg/injection, schedule: Q01DX005 (oral), vehicle: saline): 253 % of control
- T/C (dose: 10.0 mg/kg/injection, schedule: Q01DX005 (ip), vehicle: saline): 301 % of control
- T/C (dose: 12.0 mg/kg/injection, schedule: Q01DX005 (ip), vehicle: saline): 365 % of control
- T/C (dose: 14.0 mg/kg/injection, schedule: Q01DX005 (oral), vehicle: saline): 365 % of control

Structure (SMILES): O=NN(CCCl)C(=O)NCCCl
- T/C (dose: 0.12 mg/kg/injection, schedule: Q03HX032 (ip), vehicle: saline): 113 % of control and 291 % of control
- T/C (dose: 0.25 mg/kg/injection, schedule: Q03HX032 (ip), vehicle: saline): 291 % of control
- T/C (dose: 0.5 mg/kg/injection, schedule: Q03HX008 (ip), vehicle: saline): 110 % of control
- T/C (dose: 0.5 mg/kg/injection, schedule: Q03HX032 (ip), vehicle: saline): 169 % of control
- T/C (dose: 1.0 mg/kg/injection, schedule: Q01DX005 (ip), vehicle: saline + alcohol): 109 % of control
- T/C (dose: 2.0 mg/kg/injection, schedule: Q01DX001 (ip), vehicle: Klucel (hydroxypropylcellulose) (HPC)): 95 % of control and 100 % of control and 111 % of control
- T/C (dose: 2.0 mg/kg/injection, schedule: Q01DX005 (ip), vehicle: saline with Tween-80): 113 % of control
- T/C (dose: 2.0 mg/kg/injection, schedule: Q03HX008 (ip), vehicle: saline): 103 % of control and 251 % of control
- T/C (dose: 2.0 mg/kg/injection, schedule: Q03HX032 (ip), vehicle: saline): 151 % of control and 179 % of control
- T/C (dose: 4.0 mg/kg/injection, schedule: Q01DX001 (ip), vehicle: Klucel (hydroxypropylcellulose) (HPC)): 101 % of control and 106 % of control and 120 % of control
- T/C (dose: 4.0 mg/kg/injection, schedule: Q01DX001 (oral), vehicle: saline with Tween-80): 97 % of control and 108 % of control
- T/C (dose: 4.0 mg/kg/injection, schedule: Q01DX005 (ip), vehicle: alcohol): 106 % of control
- T/C (dose: 4.0 mg/kg/injection, schedule: Q03HX008 (ip), vehicle: saline): 178 % of control and 327 % of control
- T/C (dose: 4.0 mg/kg/injection, schedule: Q## X006 (ip), vehicle: saline with Tween-80): 159 % of control
- T/C (dose: 8.0 mg/kg/injection, schedule: Q01DX001 (ip), vehicle: Klucel (hydroxypropylcellulose) (HPC)): 115 % of control
- T/C (dose: 8.0 mg/kg/injection, schedule: Q01DX001 (oral), vehicle: saline with Tween-80): 95 % of control and 102 % of control and 122 % of control
- T/C (dose: 8.0 mg/kg/injection, schedule: Q01DX005 (ip), vehicle: saline + alcohol): 361 % of control
- T/C (dose: 8.0 mg/kg/injection, schedule: Q03HX008 (ip), vehicle: saline): 96 % of control and 98 % of control
- T/C (dose: 8.0 mg/kg/injection, schedule: Q## X006 (ip), vehicle: saline with Tween-80): 219 % of control
- T/C (dose: 10.0 mg/kg/injection, schedule: Q01DX001 (ip), vehicle: other): 124 % of control
- T/C (dose: 15.0 mg/kg/injection, schedule: Q01DX001 (ip), vehicle: saline with Tween-80): 176 % of control
- T/C (dose: 16.0 mg/kg/injection, schedule: Q01DX001 (ip), vehicle: Klucel (hydroxypropylcellulose) (HPC)): 150 % of control and 228 % of control
- T/C (dose: 16.0 mg/kg/injection, schedule: Q01DX001 (ip), vehicle: other): 124 % of control
- T/C (dose: 16.0 mg/kg/injection, schedule: Q01DX001 (oral), vehicle: saline with Tween-80): 158 % of control
- T/C (dose: 16.0 mg/kg/injection, schedule: Q01DX005 (ip), vehicle: saline + alcohol): 96 % of control
- T/C (dose: 16.0 mg/kg/injection, schedule: Q08DX002 (ip), vehicle: saline): 207 % of control and 291 % of control
- T/C (dose: 20.0 mg/kg/injection, schedule: Q01DX001 (ip), vehicle: other): 164 % of control
- T/C (dose: 20.0 mg/kg/injection, schedule: Q01DX001 (oral), vehicle: saline with Tween-80): 195 % of control
- T/C (dose: 30.0 mg/kg/injection, schedule: Q01DX001 (ip), vehicle: saline with Tween-80): 212 % of control
- T/C (dose: 32.0 mg/kg/injection, schedule: Q01DX001 (ip), vehicle: Klucel (hydroxypropylcellulose) (HPC)): 101 % of control and 217 % of control and 231 % of control
- T/C (dose: 32.0 mg/kg/injection, schedule: Q01DX001 (ip), vehicle: other): 219 % of control
- T/C (dose: 32.0 mg/kg/injection, schedule: Q01DX001 (oral), vehicle: saline with Tween-80): 108 % of control
- T/C (dose: 32.0 mg/kg/injection, schedule: Q04DX004 (ip), vehicle: saline): 111 % of control
- T/C (dose: 40.0 mg/kg/injection, schedule: Q01DX001 (ip), vehicle: other): 196 % of control
- T/C (dose: 64.0 mg/kg/injection, schedule: Q01DX001 (ip), vehicle: saline with Tween-80): 94 % of control
- T/C (dose: 64.0 mg/kg/injection, schedule: Q01DX001 (oral), vehicle: saline with Tween-80): 94 % of control
- T/C (dose: 64.0 mg/kg/injection, schedule: Q04DX004 (ip), vehicle: saline): 100 % of control
- T/C (dose: 64.0 mg/kg/injection, schedule: Q08DX002 (ip), vehicle: saline): 97 % of control
- T/C (dose: 128.0 mg/kg/injection, schedule: Q01DX001 (ip), vehicle: saline with Tween-80): 97 % of control
- T/C (dose: 128.0 mg/kg/injection, schedule: Q01DX001 (oral), vehicle: saline with Tween-80): 92 % of control
- T/C (dose: 256.0 mg/kg/injection, schedule: Q01DX001 (ip), vehicle: saline with Tween-80): 88 % of control
- T/C (dose: 256.0 mg/kg/injection, schedule: Q01DX001 (oral), vehicle: saline with Tween-80): 88 % of control
